Test results as given in the METLIN SMRT retention time set (Domingo-Almenara et al. 2019).

Test: gradient 5% acetonitrile 3 min, to 50% in 2 min, to 85% in 15 min, held 3 min, 100 µL/min
Conditions: column: Zorbax Extend-C18 2.1 x 50 mm; eluents: water / acetonitrile, 0.1% formic acid
Method in brief: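 Standards, all pure, were combined into mixtures of ~100 molecules and run at 100 μL/min on a Zorbax Extend-C18 column (2.1 × 50 mm, 1.8 μm) with water and acetonitrile, each containing 0.1% formic acid. A coupled quadrupole time-of-flight mass spectrometer operated in positive and negative ionization mode. Retention time values come from computationally picked adduct peaks, each inspected manually.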

RP-LC retention time [s]	Structure (SMILES)
611	CCCN(Cc1ccc(OC)c(OC)c1)Cc1cc(=O)n2cc(C)ccc2n1
953	Cc1nc(-n2nc(C)c(Cl)c2C)sc1C(=O)N1CCOCC1
693	Cc1onc(-c2ccccc2Cl)c1C(=O)N1CC2CC1C(=O)O2 (configuration not stated)
895	COc1cc(C(=O)NCCc2csc(-c3ccc(Cl)cc3)n2)c([N+](=O)[O-])cc1OC
790	COc1ccc(S(=O)(=O)CCc2noc(C(=O)NCc3cc(OC)c(OC)c(OC)c3)n2)cc1
718	O=C1C(N2CCN(S(=O)(=O)c3ccc(Cl)cc3)CC2)CCN1CCc1ccccc1 (configuration not stated)
728	Cc1ccccc1NS(=O)(=O)c1c[nH]c2ncccc12
741	Cc1ccc(CNC(=O)C2CCCN(c3cnc4nc(C)c(C)nc4c3)C2)cc1 (configuration not stated)
665	NC(N)=N/N=C(\c1ccc(Cl)cc1)C1CC1
714	O=C(Cc1nc(-c2ccccc2)n[nH]1)NC1CCCCC1
753	CCC1CN2C=Nc3oc(C)c(C(=O)Nc4ccc(C(F)(F)F)cc4)c3C2=N1 (configuration not stated)
566	COC(=O)C1=C(CN2CCOCC2)NC(=O)NC1c1ccc(Cl)cc1 (configuration not stated)
732	COCc1nn(CC2CC2)c2c1CN(C(=O)Cc1ccccc1)CC2
779	O=C(CN1C(=O)C2CCCCN2c2ccc(C(=O)N3CCCC3)cc21)Nc1ccc2c(c1)OCCO2 (configuration not stated)
576	Cc1ccccc1C(=O)NCc1ccc2c(c1)ncn2C
686	Cc1ccc(NC(=O)N2CCC(c3cc(N)on3)CC2)cc1
610	CC(C)CC(=O)N1CCc2cc(CNS(=O)(=O)Cc3ccccc3)ccc21
893	O=c1ccc(-c2ccc3c(c2)OCO3)nn1CCc1nc(-c2ccc3c(c2)OCO3)no1
1240	CCCCOc1ccc(-c2nc(C3CC(=O)N(c4ccc(F)cc4)C3)no2)cc1 (configuration not stated)
918	Cn1c(=O)n(CC(=O)N2CCCCC2)c(=O)c2cnc(-c3ccccc3)nc21
1000	COCCCNc1onc(-c2ccc(Cl)cc2)c1C(=O)OC

RP-LC retention time [s]	Structure (SMILES)
1260	CCCOc1nc2ccccc2nc1N1CCCC(C(=O)NC2CCCCC2)C1 (configuration not stated)
691	CCn1c(C)c(CCC(=O)NCC2CCCO2)c(=O)n2nc(-c3ccccc3)nc12 (configuration not stated)
957	Cc1csc(-c2cc(S(=O)(=O)Nc3cc(F)ccc3Cl)cn2CC(=O)N2CCCC2)n1
768	Cc1nc(C(=O)N2CC(F)(F)C[C@H]2c2nc(C3CC3)no2)co1
705	O=S(=O)(Nc1ccc(Cn2cncn2)cc1)c1cccc(F)c1
713	O=C(Cc1ccccc1)N1CCC(Nc2cccn3ncnc23)CC1
1320	O=C(NC1CCCc2ccccc21)c1cc2sccc2n1Cc1ccc(Cl)cc1 (configuration not stated)
908	COC(=O)C1=CN(c2cc(OC)cc(OC)c2)c2ccc(F)cc2S1(=O)=O
1270	Cc1nc(-c2csc(S(=O)(=O)N3CCN(c4cccc(Cl)c4)CC3)c2)sc1C
936	CCn1c(=O)c2ccccc2n(Cc2nc(-c3cc(OC)c(OC)c(OC)c3)no2)c1=O
990	Cn1nc(-c2nnc(-c3ccccc3F)o2)c2c1CCN(S(=O)(=O)c1ccc(F)c(Cl)c1)C2
885	Cc1nc(N2CCOCC2)c2c(C)c(C(=O)Nc3cccc(Cl)c3C)sc2n1
661	O=C1c2ccccc2C(=O)c2[nH]cnc21
595	N#CCn1nc2n(c1=O)CCN(C(=O)c1cc(C3CC3)[nH]n1)CC2
986	Cc1noc2ncnc(N3CCCC(C(=O)N4CCC(Cc5ccccc5)CC4)C3)c12 (configuration not stated)
667	O=C(NCCNC(=O)c1cccc(Cl)c1)c1ccc(NC(=O)C2CC2)cc1
861	CCC(C)NC(=O)NCCC1CCN(S(=O)(=O)c2ccc(C)cc2)CC1 (configuration not stated)
694	O=S(=O)(c1ccccc1C(F)(F)F)N1CCC2(CCN(c3cccnc3)C2)C1 (configuration not stated)
1070	CCOc1nc2ccccc2nc1N1CCCC(C(=O)N2CCCC2)C1 (configuration not stated)
669	COC(=O)c1cnc2nc(C)ccc2c1Nc1cc(F)ccc1F
1300	CC1CCCN(c2nccnc2SCC(=O)Nc2ccc(F)cc2Cl)C1 (configuration not stated)

RP-LC retention time [s]	Structure (SMILES)
619	COc1ccc(NC(=O)Cn2ccnc2-c2ccnc(N3CCSCC3)c2)cc1OC
768	COc1ccc(NC(=O)Cn2c(=O)nc(N3CCC(C)CC3)c3ccccc32)cc1OC
677	CCOC(=O)Cc1cc(=O)oc2cc(O)ccc12
830	Cc1sc(NC(=O)C(C)(C)C)nc1-c1ccc2c(c1)NC(=O)CO2
642	CC1(C(=O)NCc2ccc3c(c2)OCO3)CCCCC(=O)N1 (configuration not stated)
560	COCCNC(=O)C1(CCO)CCN(Cc2ccccc2)C1 (configuration not stated)
716	CN(c1nccn2c(=O)n(CC(=O)Nc3ccc4c(c3)OCO4)nc12)C1CCCCC1
942	Cc1ccc(Nc2cc(C)n3c(=O)n(Cc4cc(=O)n5ccccc5n4)nc3n2)cc1F
653	COCCNC(=O)CN1C(=O)C2CCCCN2c2ccc(C(=O)N3CCCC3)cc21 (configuration not stated)
716	Cc1cccc(NS(=O)(=O)c2cc(-c3[nH]ncc3C(=O)N3CCCC3)oc2C)c1
922	CC(=O)NCc1ccc(-c2noc(-c3cccc(Br)c3)n2)s1
1120	COc1ccc(-c2nc(-c3cccc(-c4ccnn4C)c3)no2)cc1
664	O=C(CN1CCc2[nH]c3c(F)c(Cl)ccc3c(=O)c2C1)NCc1ccccc1F
637	CCCNc1cc(N2CCCC(CCC(=O)N3CCN(c4ncccn4)CC3)C2)ncn1 (configuration not stated)
842	COCCN1C(=O)c2ccccc2C(C(=O)NCc2ccccc2)C1c1cccs1 (configuration not stated)
644	CCCCNC(=O)c1cc(NC(=O)C2CCC2)cc2nc(C)ccc12
570	Cc1noc(C)c1S(=O)(=O)N[C@@H]1CN(Cc2ccccc2)C[C@H]1CN(C)C
735	COc1cc2nc(C(=O)N3CCCCC3)cc(Nc3ccc(F)c(Cl)c3)c2cc1OC
757	CCOc1ccc(-c2nnc(SCC(=O)N3CCCC3)o2)cc1
660	Cc1ccccc1NC(=O)NC1CCN(C(=O)C2CC2)C1 (configuration not stated)
